# Test results: ChEMBL document CHEMBL3600339, “Novel Resveratrol-Based Aspirin Prodrugs: Synthesis, Metabolism, and Anticancer Activity” (J Med Chem, 2015)
# The source made the active and inactive calls. The calls are words filed in the database; no cut-off is given here.
# Assays:
# HT-29 [1] = test: Cell cycle arrest in human HT-29 cells assessed as accumulation at S phase at 20 uM after 24 hrs by propidium iodide staining-based flow cytometric analysis (reference value: 35.26%); format: functional
# HT-29 [2] = test: Cell cycle arrest in human HT-29 cells assessed as accumulation at G2/M phase at 20 uM after 24 hrs by propidium iodide staining-based flow cytometric analysis (reference value: 31.81%); format: functional
# HCT-116 [3] = test: Induction of apoptosis in human HCT116 cells at 20 uM after 24 hrs by propidium iodide staining-based flow cytometric analysis (reference value: 5.25%); format: functional
# Colon = test: Retention time of the compound in C57BL/6J mouse colon at 200 mg/kg, ig by HPLC-CEAD analysis; format: ADME, organism-based; settings: in vivo, po
# HT-29 [4] = test: Cell cycle arrest in human HT-29 cells assessed as accumulation at G1 phase after 24 hrs by propidium iodide staining-based flow cytometric analysis; format: functional
# HT-29 [5] = test: Induction of apoptosis in human HT-29 cells assessed as downregulation of BclXL expression after 24 hrs by Western blot analysis; format: functional, cell-based
# HT-29 [6] = test: Cytotoxicity against human HT-29 cells assessed as inhibition of colony formation after 2 weeks by crystal violet staining assay; format: functional, cell-based
# HCT-116 [7] = test: Cell cycle arrest in human HCT116 cells assessed as accumulation at S phase at 40 uM after 24 hrs by propidium iodide staining-based flow cytometric analysis (reference value: 34.85%); format: functional
# HT-29 [8] = test: Cell cycle arrest in human HT-29 cells assessed as accumulation at G0/G1 phase at 60 uM after 24 hrs by propidium iodide staining-based flow cytometric analysis (reference value: 33.61%); format: functional
# HT-29 [9] = test: Induction of apoptosis in human HT-29 cells assessed as upregulation of cleaved caspase 3 expression at 20 to 60 uM after 24 hrs by Western blot analysis; format: functional, cell-based
# HT-29 [10] = test: Induction of apoptosis in human HT-29 cells assessed as upregulation of cytochrome C expression at 20 to 60 uM after 24 hrs by Western blot analysis; format: functional, cell-based
# HCT-116 [11] = test: Induction of apoptosis in human HCT116 cells at 40 uM after 24 hrs by propidium iodide staining-based flow cytometric analysis (reference value: 5.25%); format: functional
# HT-29 [12] = test: Induction of apoptosis in human HT-29 cells assessed as upregulation of Bim expression after 24 hrs by Western blot analysis; format: functional, cell-based
# HCT-116 [13] = test: Cell cycle arrest in human HCT116 cells assessed as accumulation at G2/M phase at 20 uM after 24 hrs by propidium iodide staining-based flow cytometric analysis (reference value: 23.75%); format: functional
# HT-29 [14] = test: Induction of apoptosis in human HT-29 cells at 40 uM after 24 hrs by propidium iodide staining-based flow cytometric analysis (reference value: 3.74%); format: functional
smiles,measurement,setting,value
CC(=O)Oc1ccccc1C(=O)Oc1ccc(/C=C/c2cc(O)cc(O)c2)cc1,Activity,HT-29 [1],39.83%
same,Activity,HT-29 [2],24.31%
same,Activity,HCT-116 [3],12.6%
same,Retention_time,Colon,43 min
same,Activity,HT-29 [4],Dose-dependent effect
same,Activity,HT-29 [5],Dose-dependent effect
same,inhibition,HT-29 [6],Dose-dependent effect
same,Activity,HCT-116 [7],33.84%
same,Activity,HT-29 [8],41.33%
same,Activity,HT-29 [9],Active
same,Activity,HT-29 [10],Active
same,Activity,HCT-116 [11],17.4%
same,Activity,HT-29 [12],Dose-dependent effect
same,Activity,HCT-116 [13],15.54%
same,Activity,HT-29 [14],21.2%
